Measured values published in BindingDB's records for doi:10.1016/j.ejmech.2017.08.029 (Emory University, 2017).
pIC50: −log10 of the molar value.

Assay: Inhibition of human GLUT1 in human KMS11 cells over-expressing human GLUT1 assessed as as inhibition of receptor-mediated cell proliferation after 72 hrs by CellTiter-Glo assay

`COc1ccc(C(=O)N(Cc2ccncc2)Cc2cccc(OCc3ccc(F)cc3)c2)cc1` showed a pIC50 of 4.54.
`COc1ccc(C(=O)N(Cc2ccncc2)Cc2cccc(OCc3cccc(OC)c3)c2)cc1` gave a pIC50 of 4.55.
`COc1ccc(C(=O)N(Cc2ccncc2)Cc2cccc(OCC(=O)c3cccc(Br)c3)c2)cc1` showed a pIC50 of 4.67.
In the case of `COc1ccc(CC(=O)N(Cc2ccncc2)Cc2cccc(OCCc3ccc(F)cc3)c2)cc1`, the pIC50 was 4.66.
Work on `COc1ccc(C(=O)N(Cc2ccncc2)Cc2cccc(OCCc3ccc(Br)cc3)c2)cc1` yielded a pIC50 of 5.19.
Work on `COc1ccc(C(=O)N(Cc2ccncc2)Cc2cccc(OCCc3cccc(C(F)(F)F)c3)c2)cc1` yielded a pIC50 of 4.82.
With `COc1ccc(C(=O)N(Cc2ccncc2)Cc2cccc(OCC3CCOCC3)c2)cc1` the pIC50 was 4.59.
Compound `COc1ccc(C(=O)N(Cc2ccncc2)Cc2cccc(OCCc3ccccc3)c2)cc1` has a pIC50 of 4.68.
`COc1ccc(C(=O)N(Cc2ccncc2)Cc2cccc(OCC3CCCCC3)c2)cc1` showed a pIC50 of 4.80.
For `COc1ccc(C(=O)N(Cc2ccncc2)Cc2cccc(OCc3ccc([N+](=O)[O-])cc3)c2)cc1`, the pIC50 was 4.93.
`COc1ccc(C(=O)N(Cc2ccncc2)Cc2cccc(OCC(=O)c3ccc(Cl)cc3)c2)cc1` gave a pIC50 of 4.77.
Compound `O=C(c1ccc(Cl)cc1)N(Cc1ccncc1)Cc1cccc(OCCc2ccc(F)cc2)c1` has a pIC50 of 4.81.
Work on `COc1ccc(C(=O)N(Cc2ccncc2)Cc2cccc(OCCc3ccc(C)cc3)c2)cc1` yielded a pIC50 of 4.90.
For `COc1ccc(C(=O)N(Cc2ccncc2)Cc2cccc(OCc3ccc(C(F)(F)F)cc3)c2)cc1`, the pIC50 was 4.77.
